According to EP2890687B1, “SALTS OF BENZOTHIAZOLONE COMPOUND AS BETA-2-ADRENOCEPTOR AGONIST” (priority 2012, dated 2014):
Converted amounts (≈) assume the structure as drawn. Where two headings read alike, the source gives them in different places.

Key:
[1] = Comparative solubility in H2O with pH adjustment by HCl or NaOH; type: physicochemical; conditions: water, read-out: solubility in H2O, Conc
Experimental: The relative solubilities of the free base form and the acetate and glycolate salt forms of Compound A were analysed and the results are show in the table below. Solutions were titrated with addition of HCl or NaOH for pH adjustment. The improved aqueous solubilities of the acetate and glycolate salt forms relative to the free base form of Compound A make the acetate and glycolate salts of Compound A more suitable for subcutaneous injection or infusion.

[2] = molecular target: T1, human 5-HT2C receptor (Homo sapiens, UniProt P28335); experiment: 3H-Mesulergine binding to hr5-HT2C CHO cell membranes; conditions: 3H-Mesulergine 1 nM, kind of constant not stated
T1 construct: purchased Biosignal Packard, USA; host or cells: CHO cell membranes
T1 sequence (P28335 33-458): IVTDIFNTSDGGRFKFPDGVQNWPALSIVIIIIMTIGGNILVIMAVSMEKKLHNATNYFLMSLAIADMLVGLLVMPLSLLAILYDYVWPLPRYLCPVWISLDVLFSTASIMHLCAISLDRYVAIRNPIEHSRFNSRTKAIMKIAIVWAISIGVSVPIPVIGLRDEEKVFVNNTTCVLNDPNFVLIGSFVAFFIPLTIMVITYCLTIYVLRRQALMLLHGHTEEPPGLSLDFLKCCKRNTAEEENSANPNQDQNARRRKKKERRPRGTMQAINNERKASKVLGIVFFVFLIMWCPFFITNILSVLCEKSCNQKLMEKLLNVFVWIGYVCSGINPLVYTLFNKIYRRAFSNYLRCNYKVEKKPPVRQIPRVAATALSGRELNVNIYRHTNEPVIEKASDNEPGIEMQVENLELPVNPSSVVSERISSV
Experimental: Non-specific binding is evaluated in the presence of 1 µM Mesulergine. Fifty µL each of membrane, ligand and compound in a total volume of 250 µL are incubated in 96-well plates for 60 min at 22° C in a buffer containing 50 mM Tris, 0.1% ascorbic acid, 10 µM Pargyline, pH 7.7. The plates are filtrated, washed 3 times in ice-cold 50 mM Tris, dred and measured in Topcount.

[3] = molecular target: T2, Serotonin 5-HT2C (Homo sapiens, UniProt P28335); experiment: Aequorin agonist assay in CHO-K1 cells expressing recombinant Serotonin 5-HT2Cne and Gα16; type: cell-based; conditions: for Emax: CHO-K1, percentage of the activity of the reference agonist at its EC100
T2 construct: expressed in transfected cells; host or cells: CHO-K1 coexpressing mitochondrial apoaequorin and Gα16
T2 sequence (P28335 33-458): T1 sequence (P28335 33-458)

[4] = test system: Human skMC; experiment: cAMP response in primary human skeletal muscle cells (differentiated skeletal myotubes); conditions: read-out: Primary cells; for EC50: cAMP response EC50 Human skMC, differentiated skeletal myotubes; for Emax: cAMP response Emax % Human skMC
[5] = molecular target: β2 AR (Homo sapiens, UniProt P07550); experiment: cAMP functional assay in CHO cells stably transfected with human β2 adrenoceptor (Test 1); conditions: for Emax: CHO, read-out: CHO cells Emax % β2 AR, cAMP, compared to isoprenaline; for EC50: CHO cells EC50 β2 AR, cAMP, CHO cells stably transfected with human β2 adrenoceptor
[6] = molecular target: β1 AR (Homo sapiens, UniProt P08588); experiment: cAMP functional assay in CHO cells stably transfected with human β1 adrenoceptor (Test 1); conditions: for Emax: CHO, read-out: CHO cells Emax % β1 AR
[7] = molecular target: T3, α1A AR (Homo sapiens, UniProt P35348); experiment: Ca2+ FLIPR assay in human adrenergic Alpha1A CHO-K1 cell line (Test 1); type: cell-based; conditions: summary in words
T3 construct: host or cells: CHO-K1
T3 sequence (P35348 1-466): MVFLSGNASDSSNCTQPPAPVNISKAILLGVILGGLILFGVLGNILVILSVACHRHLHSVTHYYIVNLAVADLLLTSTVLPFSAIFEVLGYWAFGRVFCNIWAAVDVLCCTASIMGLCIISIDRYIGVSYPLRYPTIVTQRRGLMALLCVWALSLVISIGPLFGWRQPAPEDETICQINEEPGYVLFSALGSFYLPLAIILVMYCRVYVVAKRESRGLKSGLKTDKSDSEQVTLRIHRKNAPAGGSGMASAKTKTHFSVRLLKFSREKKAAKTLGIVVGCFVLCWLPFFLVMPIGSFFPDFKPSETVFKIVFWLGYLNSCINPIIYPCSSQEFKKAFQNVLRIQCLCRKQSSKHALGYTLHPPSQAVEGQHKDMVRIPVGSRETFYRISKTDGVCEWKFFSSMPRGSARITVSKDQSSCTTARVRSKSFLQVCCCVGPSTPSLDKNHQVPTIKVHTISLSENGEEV

[8] = molecular target: Adrenergic beta1 (Cavia porcellus, UniProt H0W3H1); experiment: Left atrium contraction assay (Ricerca, Adrenergic beta1); set-up: species or system Dunkin Hartley Guinea pig
[9] = test system: Sino-Atrial node; experiment: Sino-Atrial node beating rate in isolated rabbit right atrium; set-up: species or system New Zealand white female rabbits; conditions: n=6
[10] = test system: isolated Langendorff perfused rabbit hearts; experiment: Automaticity in isolated Langendorff perfused rabbit hearts
[11] = test system: rats; experiment: Heart rate in rats after s.c. bolus; type: in vivo, Wistar Han (W-H) IGS rats; conditions: up to 0.3 mg/kg, Figures 3a-3c
Source text: Wistar Han (W-H) IGS (International Genetic Standard) rats (Crl:WI(Han)) were purchased from Charles River Laboratories. Femoral arterial and venous catheters were chronically implanted and exteriorized through a spring tether-swivel system and housed in specialized cages. Arterial catheter was connected to a pressure transducer to continuously measure pulse pressure, mean arterial pressure and heart rate, which was derived from the blood pressure signal, via a digital data acquisition system. Compounds were administered via s.c catheter implanted through the skin buttun. Values are expressed as means ± SEM (n=3).

[12] = test system: Rhesus monkeys; experiment: Heart rate in rhesus monkeys after single s.c. administration; type: in vivo; conditions: s.c. bolus, up to 0.03 mg/kg, Figures 4a, 4b
Experimental: Rhesus monkeys, 24 females with body weight around 4 to 8 kg, were randomized into 4 groups of n=6. The animals were restrained on a chair up to 4 hours after single subcutaneous administration of compounds, and then returned to their pens. Heart rates were measured using a Surgivet V3304 device. Values are expressed as means ± SEM (n=6).

[13] = Steady state plasma concentration in the rat minipump study; type: in vivo, Male Wistar Han IGS rats; conditions: rats
Experimental: Rats were acclimated to the facility for 7 days. […] Food and water were provided ad libitum. […] Body weights were measured twice per week. […] Brain weight was used for normalization of organ weights. Results are expressed as mean +/-SEM.

[14] = test system: skeletal muscle and heart; conditions: rats
[15] = test system: Rat cardiomyocytes; experiment: cAMP response in primary rat cardiomyocytes; conditions: Cardiomyocyte
[16] = test system: Rat skMC; experiment: cAMP response in primary rat skeletal muscle cells
[17] = Homo sapiens, Myotube, compared to formoterol

Chain of β2 AR (P07550 whole entry): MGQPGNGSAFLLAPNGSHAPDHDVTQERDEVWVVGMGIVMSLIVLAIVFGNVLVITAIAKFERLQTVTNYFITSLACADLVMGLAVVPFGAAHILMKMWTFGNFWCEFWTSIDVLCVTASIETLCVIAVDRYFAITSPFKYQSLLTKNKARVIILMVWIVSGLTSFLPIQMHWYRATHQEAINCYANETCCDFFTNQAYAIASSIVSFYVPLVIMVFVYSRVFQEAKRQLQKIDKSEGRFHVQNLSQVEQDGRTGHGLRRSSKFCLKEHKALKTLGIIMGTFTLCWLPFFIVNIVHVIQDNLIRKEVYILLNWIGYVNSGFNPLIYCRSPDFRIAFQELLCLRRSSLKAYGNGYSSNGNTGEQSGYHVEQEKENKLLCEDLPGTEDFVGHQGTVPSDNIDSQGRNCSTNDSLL
Chain of β1 AR (P08588 whole entry): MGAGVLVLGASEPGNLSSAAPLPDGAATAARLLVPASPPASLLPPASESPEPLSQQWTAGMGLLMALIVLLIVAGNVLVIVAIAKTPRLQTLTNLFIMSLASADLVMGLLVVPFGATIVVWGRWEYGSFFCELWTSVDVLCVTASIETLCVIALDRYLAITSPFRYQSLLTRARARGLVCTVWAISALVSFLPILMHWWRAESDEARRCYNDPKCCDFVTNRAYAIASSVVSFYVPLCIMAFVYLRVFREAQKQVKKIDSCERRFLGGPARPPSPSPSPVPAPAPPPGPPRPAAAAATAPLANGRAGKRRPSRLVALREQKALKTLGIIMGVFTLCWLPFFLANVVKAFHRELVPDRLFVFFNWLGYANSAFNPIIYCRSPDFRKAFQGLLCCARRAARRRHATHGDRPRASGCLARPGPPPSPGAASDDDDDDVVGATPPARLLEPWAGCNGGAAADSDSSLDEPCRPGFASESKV
Chain of Adrenergic beta1 (H0W3H1 1-470): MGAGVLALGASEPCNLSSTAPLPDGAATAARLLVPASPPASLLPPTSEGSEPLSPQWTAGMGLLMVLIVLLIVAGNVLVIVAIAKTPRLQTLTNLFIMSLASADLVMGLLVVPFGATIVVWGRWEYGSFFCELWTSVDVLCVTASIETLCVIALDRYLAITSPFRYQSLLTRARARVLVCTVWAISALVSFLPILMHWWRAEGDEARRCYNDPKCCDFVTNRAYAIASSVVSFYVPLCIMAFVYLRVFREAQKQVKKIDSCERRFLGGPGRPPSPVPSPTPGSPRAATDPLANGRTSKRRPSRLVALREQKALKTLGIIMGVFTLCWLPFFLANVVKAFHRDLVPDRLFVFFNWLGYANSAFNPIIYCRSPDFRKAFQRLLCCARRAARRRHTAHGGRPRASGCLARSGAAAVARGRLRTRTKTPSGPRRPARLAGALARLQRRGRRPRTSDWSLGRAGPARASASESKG

CCCCOc1ccc(CC(C)(C)NC[C@H](O)c2cc(O)cc3[nH]c(=O)sc23)cc1.O=C(O)CO [Compound A glycolate salt, (R)-7-(2-(1-(4-butoxyphenyl)-2-methylpropan-2-ylamino)-1-hydroxyethyl)-5-hydroxybenzo[d]thiazol-2(3H)-one glycolate salt]
solubility ([1]; pH 5.1, aqueous buffer): 13100 µg/mL
solubility ([1]; pH 5.3, aqueous buffer): 6390 µg/mL
solubility ([1]; pH 5.4, aqueous buffer): 4470 µg/mL

CCCCOc1ccc(CC(C)(C)NCC(O)c2cc(O)cc3[nH]c(=O)sc23)cc1 (racemic) [Compound A/B]
Serotonin 5-HT2C Binding [2]: 1.7 µM
Emax [3]: 113%
EC50 ([4]; Homo sapiens, Myotube): 0.63 nM
Emax [4, 17]: 100%
Emax [5]: 87%
Emax [6]: 38%

CCCCOc1ccc(CC(C)(C)NC[C@@H](O)c2cc(O)cc3[nH]c(=O)sc23)cc1 [Compound B]
Serotonin 5-HT2C Binding [2]: 0.8 µM
Emax [3]: 99%
EC50 ([4]; Homo sapiens, Myotube): 280 nM
Emax [4, 17]: 100%
Emax [5]: 83%

CC(=O)O.CCCCOc1ccc(CC(C)(C)NC[C@H](O)c2cc(O)cc3[nH]c(=O)sc23)cc1 [Compound A (R) acetate salt, (R)-7-(2-(1-(4-butoxyphenyl)-2-methylpropan-2-ylamino)-1-hydroxyethyl)-5-hydroxybenzo[d]thiazol-2(3H)-one acetate salt]
solubility ([1]; aqueous buffer, pH 6.0): 1110 µg/mL
solubility ([1]; pH 5.9, aqueous buffer): 1330 µg/mL
solubility ([1]; pH 6.1, aqueous buffer): 1100 µg/mL
solubility ([1]; pH 6.2, aqueous buffer): 550 µg/mL
Emax ([4]; Homo sapiens, Myotube, compared to isoprenaline): 93%
EC50 ([4]; acetate salt): 1.7 nM
EC50 [5]: 2.5 nM

CCCCOc1ccc(CC(C)(C)NC[C@H](O)c2cc(O)cc3[nH]c(=O)sc23)cc1 [Compound A, (R)-7-(2-(1-(4-butoxyphenyl)-2-methylpropan-2-ylamino)-1-hydroxyethyl)-5-hydroxybenzo[d]thiazol-2(3H)-one]
activity on α1A AR [7]: no activity
solubility ([1]; aqueous buffer, pH 7.0): 50 µg/mL (≈ 116 µM)
solubility ([1]; pH 6.2, aqueous buffer): 270 µg/mL (≈ 627 µM)
solubility ([1]; pH 7.3, aqueous buffer): < 10 µg/mL
solubility ([1]; pH 7.8, aqueous buffer): < 10 µg/mL
EC50 ([8]; guinea pig left atria, n=2): > 10000 nM
effects on left atrium contraction ([8]; up to 10 µM): no effects
Sino-Atrial node beating rate, maximum increase [9]: +6.2%
effects on the pacemaker activity ([10]; compared to Formoterol, Figures 2a, 2b): less direct effects
Automaticity, maximum increase ([10]; isolated rabbit heart, n=3): +17%
heart rate change [11]: less heart rate increases compared to formoterol
heart rate change [12]: less heart rate increase compared to formoterol
Serotonin 5-HT2C Binding [2]: 11 µM
fold less active on 5-HT2C compared to the racemate or the (S) enantiomer [3]: over 10 fold
fold less active on 5-HT2C compared to β2 AR agonist activity ([3]; 5-HT2C EC50 versus β2 AR EC50 (5.6 nM)): 50 fold
Emax [3]: 83%
EC50 ([3]; agonist mode, aequorin luminescence): 280 nM
steady state plasma concentration ([13]; 0.01 mg/kg/day s.c. minipump): ~ 0.2 nM
steady state concentration ([13]; 0.1 mg/kg/day s.c. minipump): ~ 2 nM
skeletal muscle hypertrophy ([14]; 0.01 mg/kg/day s.c. minipump, 28 days, significant): 11%
heart histopathology ([14]; even at 0.1 mg/kg/day s.c. minipump, 28 days): no findings
skeletal muscle mass and heart mass increase (Figure 1) ([14]; s.c. minipump 28 days, formoterol 0.003-0.03, Compound A 0.01-0.1 mg/kg/day): induces skeletal muscle hypertrophy with minimum impact on heart mass
EC50 ([15]; read-out: Primary cells, cAMP response EC50 Rat cardiomyocytes): 5.7 nM
Emax ([15]; read-out: Primary cells, cAMP response Emax % Rat cardiomyocytes): 71%
EC50 ([16]; Myotube, read-out: Primary cells, cAMP response EC50 Rat skMC): 3.4 nM
Emax ([16]; read-out: Primary cells, cAMP response Emax % Rat skMC): 98%
Emax [4, 17]: 96%
EC50 ([4]; listed as Compound A (R)): 0.7 nM
EC50 [5]: 5.6 nM
Emax [5]: 88%
EC50 [6]: 560 nM
Emax [6]: 32%
intrinsic efficacy on β1 AR ([6]; summary in words): very low intrinsic efficacy
